Assay results reported in patent publication US10202360B2 (CELGENE QUANTICEL RESEARCH, INC., priority 2016, dated 2019).
pIC50: −log10 of the molar value.

Assays:
CREBBP = CREBBP (Homo sapiens (Human), UniProt Q92793); test: In vitro enzyme inhibition assay - CREBBP inhibition (AlphaScreen, biotinylated H4-tetraacetyl peptide); format: binding
Method in brief: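 Displacement of 20 nM biotinylated tetraacetyl-H4 peptide from 50 nM E. coli-expressed His-CREBBP, measured by AlphaScreen after bead equilibration for 2 h.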

BRD4 = BRD4 (Homo sapiens (Human), UniProt O60885); test: In vitro enzyme inhibition assay - BRD4 inhibition (as described in U.S. Pat. No. 9,034,900); format: binding; conditions: Table 29; BRD4 BD1
[1] = Table 28, AlphaScreen, H4-tetraacetyl peptide

Sequence of CREBBP (Q92793 1081-1197): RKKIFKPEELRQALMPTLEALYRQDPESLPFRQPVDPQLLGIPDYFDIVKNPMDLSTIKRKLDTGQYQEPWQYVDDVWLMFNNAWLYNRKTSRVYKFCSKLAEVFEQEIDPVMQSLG

SMILES | pIC50 (CREBBP; Table 29) | pIC50 (BRD4) | pIC50 (CREBBP; [1])
CCS(=O)(=O)Nc1ncc(Oc2ccc(F)cc2F)c(-c2cc(C)c(=O)n(CC3CC3)c2)n1 | < 5.30 | > 6.30 | 
Cc1cccc(Cl)c1Oc1nc(NS(=O)(=O)C(C)C)cc(-c2cc(C)c(=O)n(C)c2)n1 [Example 3, Propane-2-sulfonic acid [2-(2-chloro-6-methyl-phenoxy)-6-(1,5-dimethyl-6-oxo-1,6-dihydro-pyridin-3-yl)-pyrimidin-4-yl]-amide] | > 6.30 | 5.30 to 6.30 | > 6.30
COc1cccc(C#N)c1Oc1nc(NS(=O)(=O)C(C)C)cc(-c2cc(C)c(=O)n(C)c2)n1 [Example 11, Propane-2-sulfonic acid [2-(2-cyano-6-methoxy-phenoxy)-6-(1,5-dimethyl-6-oxo-1,6-dihydro-pyridin-3-yl)-pyrimidin-4-yl]-amide] | > 6.30 | < 5.30 | > 6.30
CCCCS(=O)(=O)Nc1cc(-c2cc(C)c(=O)n(C)c2)nc(Oc2c(C)cccc2Cl)n1 [Example 14, Butane-1-sulfonic acid [2-(2-chloro-6-methyl-phenoxy)-6-(1,5-dimethyl-6-oxo-1,6-dihydro-pyridin-3-yl)-pyrimidin-4-yl]-amide] | > 6.30 | 5.30 to 6.30 | > 6.30
Cc1cc(Cl)cc(Cl)c1Oc1nc(NS(=O)(=O)C(C)C)cc(-c2cc(C)c(=O)n(C)c2)n1 [Example 33, Propane-2-sulfonic acid [2-(2,4-dichloro-6-methyl-phenoxy)-6-(1,5-dimethyl-6-oxo-1,6-dihydro-pyridin-3-yl)-pyrimidin-4-yl]-amide] | > 6.30 | < 5.30 | > 6.30
CCCCS(=O)(=O)Nc1cc(-c2cc(C)c(=O)n(C)c2)nc(Oc2c(Cl)cccc2CC)n1 [Example 41, Butane-1-sulfonic acid [2-(2-chloro-6-ethyl-phenoxy)-6-(1,5-dimethyl-6-oxo-1,6-dihydro-pyridin-3-yl)-pyrimidin-4-yl]-amide] | > 6.30 | < 5.30 | > 6.30
Cc1cc(-c2cc(NS(=O)(=O)C3CCCC3)nc(Oc3ccc(F)cc3F)n2)cn(C)c1=O [Example 66, N-(2-(2,4-difluorophenoxy)-6-(1,5-dimethyl-6-oxo-1,6-dihydropyridin-3-yl)pyrimidin-4-yl)cyclopentanesulfonamide] | > 6.30 | 5.30 to 6.30 | > 6.30
CCCCS(=O)(=O)Nc1cc(-c2cc(C)c(=O)n(C)c2)nc(Oc2c(C)cccc2C)n1 [Example 72, N-(6-(1,5-dimethyl-6-oxo-1,6-dihydropyridin-3-yl)-2-(2,6-dimethylphenoxy)pyrimidin-4-yl)butane-1-sulfonamide] | > 6.30 | < 5.30 | > 6.30
CCCCS(=O)(=O)Nc1cc(-c2cc(Cl)c(=O)n(C)c2)nc(Oc2c(C)cccc2C)n1 [Example 87, N-(6-(5-chloro-1-methyl-6-oxo-1,6-dihydropyridin-3-yl)-2-(2,6-dimethylphenoxy)pyrimidin-4-yl)butane-1-sulfonamide] | > 6.30 | < 5.30 | > 6.30
CCCCS(=O)(=O)Nc1cc(-c2ccc(=O)n(C)c2)nc(Oc2c(C)cccc2F)n1 [Example 113, Butane-1-sulfonic acid [2-(2-fluoro-6-methyl-phenoxy)-6-(1-methyl-6-oxo-1,6-dihydro-pyridin-3-yl)-pyrimidin-4-yl]-amide] | > 6.30 | < 5.30 | > 6.30
CC(C)Oc1nc(NS(=O)(=O)c2ccccc2)cc(-c2ccc(=O)n(C)c2)n1 [Example 355, N-(2-isopropoxy-6-(1-methyl-6-oxo-1,6-dihydropyridin-3-yl)pyrimidin-4-yl)benzenesulfonamide] |  |  | > 6.30
Cn1cc(-c2cc3nc(n2)Oc2cccc(c2)OCC=CCCS(=O)(=O)N3)ccc1=O [Example 356, 5-(10,10-dioxido-2,4-dioxa-10-thia-11-aza-1(2,4)-pyrimidina-3(1,3)-benzenacycloundecaphan-6-en-16-yl)-1-methylpyridin-2(1H)-one] |  |  | > 6.30
Cn1cc(-c2cc3nc(n2)Oc2cccc(c2)OCCCCCS(=O)(=O)N3)ccc1=O [Example 357, 5-(10,10-dioxido-2,4-dioxa-10-thia-11-aza-1(2,4)-pyrimidina-3(1,3)-benzenacycloundecaphane-1^6-yl)-1-methylpyridin-2(1H)-one] |  |  | > 6.30
Cn1cc(-c2cc3nc(n2)Oc2cccc(c2)OCCC=CCCS(=O)(=O)N3)ccc1=O [Example 358, 5-(11,11-dioxido-2,4-dioxa-11-thia-12-aza-1(2,4)-pyrimidina-3(1,3)-benzenacyclododecaphan-7-en-1^6-yl)-1-methylpyridin-2(1H)-one] |  |  | > 6.30
Cn1cc(-c2cc3nc(n2)Oc2cccc(c2)OCCCCCCS(=O)(=O)N3)ccc1=O [Example 359, 5-(11,11-dioxido-2,4-dioxa-11-thia-12-aza-1(2,4)-pyrimidina-3(1,3)-benzenacyclododecaphane-1^6-yl)-1-methylpyridin-2(1H)-one] |  |  | > 6.30
Cn1cc(-c2cc3nc(n2)Oc2cc(ccc2Cl)OCC=CCCS(=O)(=O)N3)ccc1=O [Example 360, 5-(36-chloro-10,10-dioxido-2,4-dioxa-10-thia-11-aza-1(2,4)-pyrimidina-3(1,3)-benzenacycloundecaphan-6-en-1^6-yl)-1-methylpyridin-2(1H)-one] |  |  | > 6.30
Cn1cc(-c2cc3nc(n2)Oc2cc(ccc2Cl)OCC=CCCCS(=O)(=O)N3)ccc1=O [Example 361, 5-(36-chloro-11,11-dioxido-2,4-dioxa-11-thia-12-aza-1(2,4)-pyrimidina-3(1,3)-benzenacyclododecaphan-6-en-1^6-yl)-1-methylpyridin-2(1H)-one] |  |  | > 6.30
Cn1cc(-c2cc3nc(n2)Oc2cc(ccc2F)OCC=CCCCS(=O)(=O)N3)ccc1=O [Example 362, 5-(36-fluoro-11,11-dioxido-2,4-dioxa-11-thia-12-aza-1(2,4)-pyrimidina-3(1,3)-benzenacyclododecaphan-6-en-1^6-yl)-1-methylpyridin-2(1H)-one] |  |  | > 6.30
Cc1sc2c(c1C)C(c1ccc(Cl)cc1)=N[C@@H](CC(=O)OC(C)(C)C)c1nnc(C)n1-2 [JQ-1, tert-butyl (S)-2-(4-(4-chlorophenyl)-2,3,9-trimethyl-6H-thieno[3,2-f][1,2,4]triazolo[4,3-a][1,4]diazepin-6-yl)acetate, reference compound] | < 5.30 |  | 
CCS(=O)(=O)Nc1ncc(Oc2ccc(F)cc2F)c(-c2cc(C)c(=O)n(C)c2)n1 [N-(5-(2,4-difluorophenoxy)-4-(1,5-dimethyl-6-oxo-1,6-dihydropyridin-3-yl)-pyrimidin-2-yl)ethanesulfonamide] | < 5.30 | > 6.30 | 
Cc1cc(-c2nc(NS(C)(=O)=O)ncc2Oc2ccc(F)cc2F)cn(C)c1=O [N-(5-(2,4-difluorophenoxy)-4-(1,5-dimethyl-6-oxo-1,6-dihydropyridin-3-yl)-pyrimidin-2-yl)methanesulfonamide] | < 5.30 | > 6.30 | 
